Measured values published in the supplement of paper PMC11208160.

Test: recombinant barcode read abundance after kanamycin selection (control-corrected) (log10(CPM+1)); higher = more efficient recombination; sequences stand for … in AGTGCAGAGAAAATCGGCCAGTTTTCTCTGCCTGCAGTCCGCATGCCGT…AGATTTATGCAGCGGACTGCCTTTCTCCCAAAGTGATAAACCGGACAGTATCATGGACCGGTTTTCCCGGTAATCCGTATTTGCAAGGTTGGTTTCACT; site = the 11-nt target
How it was run: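 Two replicates per condition were plated: chloramphenicol/ampicillin LB agar for the control, and chloramphenicol/ampicillin/kanamycin with 0.1 mM IPTG for selection. The pooled E. coli screen behind them paired targets with IS621 bridge RNA target-binding loops. Recombination efficiency is expressed from averaged, control-corrected barcode counts per million at recombinant junctions, as log10(CPM+1).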
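Note: IS621 recombinase and bridge RNA in Escherichia coli cells.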

Row | Sequence | recombinant barcode read abundance (log10)
1 | TGTTGCACTTGGGTTCTAACCTGTTGCCT (site TGTTGGCCTAG) | 0.0587
2 | TTAACTACTTGGGTTCTAACCTGTTGCTC (site TTAACTACTAA) | 0.0118
3 | TTAACTACTTGGGTTCTAACCTGTTGCTC (site TTAACTACTCA) | 0.126
4 | TTAACTACTTGGGTTCTAACCTGTTGCTC (site TTAACTACTGA) | 0.195
5 | TTAACTACTTGGGTTCTAACCTGTTGCTC (site TTAACTACTTA) | 0
6 | TTAAGACCTTGGGTTCTAACCTGTTGCCT (site TTAAGACCTAG) | 1.37
7 | TTAAGACCTTGGGTTCTAACCTGTTGCCT (site TTAAGCCCTAG) | 0.336
8 | TTAAGTCCTTGGGTTCTAACCTGTTGCCT (site TTAAGTCCTAG) | 0.448
9 | TTAAGTCCTTGGGTTCTAACCTGTTGCCT (site TTCAGTCCTAT) | 0.134
10 | TTACAATCTTGGGTTCTAACCTGTTGCCT (site ATACAATCTAG) | 0.31
11 | TTACAATCTTGGGTTCTAACCTGTTGCCT (site CTACAATCTAG) | 0.337
12 | TTACAATCTTGGGTTCTAACCTGTTGCCT (site GTACAATCTAG) | 0.0953
13 | TTACAATCTTGGGTTCTAACCTGTTGCCT (site TTACAATCTAG) | 0.764
14 | TTACCTACTTGGGTTCTAACCTGTTGCCT (site TTACCAACTAG) | 0.237
15 | TTACCTACTTGGGTTCTAACCTGTTGCCT (site TTACCCACTAG) | 0.0698
16 | TTACCTACTTGGGTTCTAACCTGTTGCCT (site TTACCGACTAG) | 0.278
17 | TTACCTACTTGGGTTCTAACCTGTTGCCT (site TTACCTACTAG) | 0.802
18 | TTACGAGCTTGGGTTCTAACCTGTTGCCT (site TCACTAGCTAG) | 0.131
19 | TTACGAGCTTGGGTTCTAACCTGTTGCCT (site TTACGAGCTAG) | 1.08
20 | TTACGCACTTGGGTTCTAACCTGTTGCCT (site TAACCCACTAG) | 0.264
21 | TTACGCACTTGGGTTCTAACCTGTTGCCT (site TTACGCACTAG) | 1.34
22 | TTACGCGCTTGGGTTCTAACCTGTTGCGG (site TTACGAGCTCC) | 0.258

Row | Sequence | recombinant barcode read abundance (log10)
23 | TTACGCGCTTGGGTTCTAACCTGTTGCGG (site TTACGCGCTCC) | 1.67
24 | TTACGCGCTTGGGTTCTAACCTGTTGCGG (site TTACGGGCTCC) | 0.0728
25 | TTACGCGCTTGGGTTCTAACCTGTTGCGG (site TTACGTGCTCC) | 0.0492
26 | TTAGACTCTTGGGTTCTAACCTGTTGCCA (site TTAGACTCTTA) | 0.0659
27 | TTAGACTCTTGGGTTCTAACCTGTTGCCA (site TTAGACTCTTG) | 1.06
28 | TTAGCTTCTTGGGTTCTAACCTGTTGCCT (site TTAGCATCTAG) | 0.078
29 | TTAGCTTCTTGGGTTCTAACCTGTTGCCT (site TTAGCCTCTAG) | 0.0176
30 | TTAGCTTCTTGGGTTCTAACCTGTTGCCT (site TTAGCGTCTAG) | 0.0371
31 | TTAGCTTCTTGGGTTCTAACCTGTTGCCT (site TTAGCTTCTAG) | 0.163
32 | TTATACACTTGGGTTCTAACCTGTTGCAG (site CAGCGGTCTTC) | 0.0563
33 | TTATACACTTGGGTTCTAACCTGTTGCAG (site TTATACACTCT) | 1.98
34 | TTATGAGCTTGGGTTCTAACCTGTTGCCG (site ATATGAGCTTG) | 0.012
35 | TTATGAGCTTGGGTTCTAACCTGTTGCCG (site TTATGAGCTCG) | 1.2
36 | TTATGGTCTTGGGTTCTAACCTGTTGCTA (site TCTTGGTCTTA) | 0.257
37 | TTATGGTCTTGGGTTCTAACCTGTTGCTA (site TTATGGTCTTA) | 0.705
38 | TTATTGTCTTGGGTTCTAACCTGTTGCCT (site TTATTGTCTAG) | 1.37
39 | TTATTGTCTTGGGTTCTAACCTGTTGCCT (site TTCTTGCCTAG) | 0.024
40 | TTCAAACCTTGGGTTCTAACCTGTTGCCT (site TTCAAAACTAG) | 0.0532
41 | TTCAAACCTTGGGTTCTAACCTGTTGCCT (site TTCAAACCTAG) | 0.612
42 | TTCAAACCTTGGGTTCTAACCTGTTGCCT (site TTCAAAGCTAG) | 0.0476
43 | TTCAAACCTTGGGTTCTAACCTGTTGCCT (site TTCAAATCTAG) | 0.115
44 | TTCAAATCTTGGGTTCTAACCTGTTGCCT (site TTCAAAACTAG) | 0.0847

Row | Sequence | recombinant barcode read abundance (log10)
45 | TTCAAATCTTGGGTTCTAACCTGTTGCCT (site TTCAAACCTAG) | 0.242
46 | TTCAAATCTTGGGTTCTAACCTGTTGCCT (site TTCAAAGCTAG) | 0.182
47 | TTCAAATCTTGGGTTCTAACCTGTTGCCT (site TTCAAATCTAG) | 0
48 | TTCAAGCCTTGGGTTCTAACCTGTTGCCT (site TTCAAGACTAG) | 0.0598
49 | TTCAAGCCTTGGGTTCTAACCTGTTGCCT (site TTCAAGCCTAG) | 0.329
50 | TTCAAGCCTTGGGTTCTAACCTGTTGCCT (site TTCAAGGCTAG) | 0.0261
51 | TTCAAGCCTTGGGTTCTAACCTGTTGCCT (site TTCAAGTCTAG) | 0.0767
52 | TTCACACCTTGGGTTCTAACCTGTTGCCT (site TTCACACCTAG) | 0.385
53 | TTCACACCTTGGGTTCTAACCTGTTGCCT (site TTCACAGCTAG) | 0.00569
54 | TTCAGGGCTTGGGTTCTAACCTGTTGCAG (site AGAGCCTCTTA) | 0.111
55 | TTCAGGGCTTGGGTTCTAACCTGTTGCAG (site TTCAGGGCTCT) | 1.99
56 | TTCATACCTTGGGTTCTAACCTGTTGCTT (site GTCTTACCTAA) | 0.0129
57 | TTCATACCTTGGGTTCTAACCTGTTGCTT (site TTCATACCTAA) | 0.0848
58 | TTCATGTCTTGGGTTCTAACCTGTTGCTT (site CTCATGTCTAA) | 0.138
59 | TTCATGTCTTGGGTTCTAACCTGTTGCTT (site TTCATGTCTAA) | 0.421
60 | TTCCACACTTGGGTTCTAACCTGTTGCGG (site TTCCAAACTCC) | 0.116
61 | TTCCACACTTGGGTTCTAACCTGTTGCGG (site TTCCACACTCC) | 1.04
62 | TTCCGCTCTTGGGTTCTAACCTGTTGCCT (site ATCCGCTCTAG) | 0.112
63 | TTCCGCTCTTGGGTTCTAACCTGTTGCCT (site CTCCGCTCTAG) | 0.121
64 | TTCCGCTCTTGGGTTCTAACCTGTTGCCT (site GTCCGCTCTAG) | 0.139
65 | TTCCGCTCTTGGGTTCTAACCTGTTGCCT (site TTCCGCTCTAG) | 1.26
66 | TTCCTAGCTTGGGTTCTAACCTGTTGCCA (site ATCCTAGCTCG) | 0.493

Row | Sequence | recombinant barcode read abundance (log10)
67 | TTCCTAGCTTGGGTTCTAACCTGTTGCCA (site TTCCTAGCTTG) | 0.109
68 | TTCCTGACTTGGGTTCTAACCTGTTGCCT (site CTCCTGCCTAG) | 0.0475
69 | TTCCTGACTTGGGTTCTAACCTGTTGCCT (site TTCCTGACTAG) | 1.69
70 | TTCGACGCTTGGGTTCTAACCTGTTGCCT (site TTAGACTCTAG) | 0.152
71 | TTCGACGCTTGGGTTCTAACCTGTTGCCT (site TTCGACGCTAG) | 1.03
72 | TTCGACTCTTGGGTTCTAACCTGTTGCTA (site TACGACTCTAA) | 0.137
73 | TTCGACTCTTGGGTTCTAACCTGTTGCTA (site TTCGACTCTTA) | 1.07
74 | TTCGGACCTTGGGTTCTAACCTGTTGCGG (site GGGACCACTTA) | 0.677
75 | TTCGGACCTTGGGTTCTAACCTGTTGCGG (site TTCGGACCTCC) | 2.62
76 | TTCTACCCTTGGGTTCTAACCTGTTGCCT (site TACTACCCTAG) | 0.0731
77 | TTCTACCCTTGGGTTCTAACCTGTTGCCT (site TCCTACCCTAG) | 0.149
78 | TTCTACCCTTGGGTTCTAACCTGTTGCCT (site TGCTACCCTAG) | 0.0636
79 | TTCTACCCTTGGGTTCTAACCTGTTGCCT (site TTCTACCCTAG) | 0.449
80 | TTCTAGACTTGGGTTCTAACCTGTTGCCA (site GTCTATACTTG) | 0.16
81 | TTCTAGACTTGGGTTCTAACCTGTTGCCA (site TTCTAGACTTG) | 0.353
82 | TTCTCGCCTTGGGTTCTAACCTGTTGCCT (site TTCACGCCTAG) | 0.0182
83 | TTCTCGCCTTGGGTTCTAACCTGTTGCCT (site TTCCCGCCTAG) | 0.536
84 | TTCTCGCCTTGGGTTCTAACCTGTTGCCT (site TTCGCGCCTAG) | 0.00706
85 | TTCTCGCCTTGGGTTCTAACCTGTTGCCT (site TTCTCGCCTAG) | 0.576
86 | TTCTGTCCTTGGGTTCTAACCTGTTGCCT (site TTCTATCCTAG) | 0.0361
